The test system of this assay is T1, EPSPS (5-enolpyruvlshikimate-3-phosphate synthase), Golf biotypes.
T1 construct: native enzyme in leaf extract, not purified to homogeneity
Kind of assay: EPSPS activity in leaf extract, phosphate release (EnzChek Phosphate Assay). The class given is biochemical, Lolium perenne. The conditions noted are these: S-Golf biotype; 0-1000 μM glyphosate; log-logistic fit; unit from Methods (table footnote with unit not in the material); read-out: EPSPS activity^c / I50. An excerpt:
EPSPS activity in leaf extract, phosphate release (EnzChek Phosphate Assay) on EPSPS (5-enolpyruvlshikimate-3-phosphate synthase), Golf biotypes

As for `O=C(O)CNCP(=O)(O)O` [glyphosate, N-phosphonomethyl glycine], the IC50 came to 3.2 ± 0.3 µM.

The record behind these values is article PMC5651048, “Differential Resistance Mechanisms to Glyphosate Result in Fitness Cost for Lolium perenne and L. multiflorum” (Frontiers in Plant Science, 2017).
